# Results: US10463649B2, “Inhibitors of Mc1-1 as drugs to overcome resistance to BRAF inhibitors and MEK inhibitors” (Texas Tech University System, priority 2015, dated 2019)
# Experiments:
# Mcl-1 [1] = test: Western blotting for Mcl-1 and Cl.PARP in melanoma cells treated with PL; assay type: cell-based; conditions: SK-MEL-28 and Sk-MEL-2 cells, 5, 7.5 and 10 μM PL, 48 hours
# WM-239-DR cells = test: SRB cytotoxicity in dabrafenib resistant WM-239-DR cells; assay type: cell-based; conditions: 72 hours
# Description: (§1) A375, SK-MEL-28, SK-MEL-5 and WM-239 were treated (FIG. 7A) dabrafenib and trametinib and (FIG. 7B) vemurafenib and trametinib for 72 hours. Following the treatment, Mcl-1 expression was analyzed by western blotting.
# (§2) Generation of BRAF-inhibitor resistant cell lines. Vemurafenib resistant clones of A375 and SK-MEL-28 were generated by continuous exposure of cells to escalating concentrations of vemurafenib over a period of one year. The cells were treated with vemurafenib for 72 hours after which fresh media was added to the cells. In all, cells were exposed weekly to two treatments of vemurafenib for 72 hours each with a 24 hour recovery period between the treatments. […] Similarly, dabrafenib resistant cells were cultured by incubating the cells with increasing concentrations of the drug for a period of 3 months as described above. The fold resistant was intermittently evaluated by cytotoxicity analysis. Vemurafenib resistant cell lines were referred to as SK-MEL-28-R or A375-R and dabrafenib resistant cell lines were referred to as A375-DR, SK-MEL-28-DR or WM-239-DR. […] Here, A375 cells were injected subcutaneously in nude mice. When palpable tumors were formed, the mice were orally treated with 30 mg/kg vemurafenib twice a day. After a month, the tumors the resisted vemurafenib treatments were extracted and cultured in vitro.
# A375-DR cells = test: SRB cytotoxicity in dabrafenib resistant A375-DR cells; assay type: cell-based; conditions: 72 hours
# Description: as §1, §2
# WM-239 cells = test: SRB cytotoxicity in WM-239 cells; assay type: cell-based; conditions: 72 hours, read-out: IC50 of dabrafenib
# SK-MEL-28 cells = test: Cell viability / cytotoxicity by sulforhodamine B (SRB) assay in SK-MEL-28 cells
# SK-MEL-28-DR cells = test: SRB cytotoxicity in dabrafenib resistant SK-MEL-28-DR cells; assay type: cell-based; conditions: 72 hours
# Description: as §1, §2
# A375 cells = test: Cell viability / cytotoxicity by sulforhodamine B (SRB) assay in A375 cells
# Description: Each study was performed three times independently.
# Mcl-1 [2] = test: Western blotting for Mcl-1 expression in melanoma cells treated with dabrafenib and trametinib; assay type: cell-based; conditions: A375, SK-MEL-28, SK-MEL-5 and WM-239 cells, 72 hours; dabrafenib 10 nM
# Description: as §1
# A combination of BRAF inhibitor (dabrafenib) and MEK1/2 inhibitor (trametinib) for the treatment of late phase malignant melanoma has been approved by the FDA.
# [3] = system: SK-MEL-28 cells transfected with Mcl-1 plasmid; test: SRB cell survival in SK-MEL-28 cells transfected with Mcl-1 plasmid; assay type: cell-based; conditions: SK-MEL-28 transfected with Mcl-1 plasmid, 10 nM dabrafenib, 2 nM trametinib or the combination, 72 hours
# Description: FIG. 3A (A375 cells) and FIG. 3B SK-MEL-28 cells untransfected or transfected with Mcl-1 plasmid were treated with 0.2 μM and 0.4 μM vemurafenib for 72 hours. The cell survival was evaluated by sulforhodamine B assay. […] FIG. 3E A375 and A375-Mcl-1+/+ or FIG. 3F, SK-MEL-28 and SK-MEL-28-Mcl-1+/+ were treated with 0.2 μM and 0.4 μM vemurafenib for 72 hours. The cell survival was evaluated by sulforhodamine B assay.
# FIG. 8A (A375) and FIG. 8B (SK-MEL-28) untransfected or transfected with Mcl-1 plasmid were treated with 10 nM dabrafenib or 2 nM trametinib for 72 hours. FIG. 8C A375 and FIG. 8D SK-MEL 28 cells untransfected or transfected with Mcl-1 plasmid were treated with 400 nM vemurafenib or 2 nM trametinib for 72 hours. The cell survival was evaluated by sulforhodamine B assay.
# Mcl-1 overexpression. A375 or SK-MEL-28 cells were transiently or stably transfected with plasmid overexpressing Mcl-1 by nucleofection kit (Lonza, Basel, Switzerland) according to manufacturer's protocol and previously described by the inventors (26). Briefly, 2×10^6 cells were suspended in a reaction mixture from the kit specific to the cell line (Kit V for A375 and Kit R for SK-MEL-28 cells). The cells were transferred to the cuvettes and nucleofected using the nucleofector instrument (Amaxa, Cologne, Germany). […]
# A375-R cells [4] = test: SRB cell survival in vemurafenib resistant A375-R cells; assay type: cell-based; conditions: A375-R cells, 500 nM TW-37 alone
# Description: (§3) Each study was performed three times independently. Mcl-1 inhibitor overcomes vemurafenib resistance in melanoma cells. […] The cell survival was evaluated by sulforhodamine B assay.
# (§4) FIGS. 4A to 4D show the silencing Mcl-1 reverses vemurafenib resistance. […] The cell survival was evaluated by sulforhodamine B assay.
# as §2
# (§5) Mcl-1 silencing. Silencing of Mcl-1 was achieved according to the protocol described by the inventors (27). Briefly, 0.3×10^6 cells were plated in OPTI-MEM without antibiotics and transfected with either Mcl-1 siRNA or scrambled siRNA. Complexes were prepared by incubating […] siRNA with 8 μl siPORT transfection reagent in 200 μl OPTI-MEM media without serum or antibiotic for 20 minutes. These complexes were then added to the cells. Six hours after transfection, complexes were replaced with fresh medium.
# A375-R cells [5] = test: Tumor therapy: A375-R xenografts in athymic nude mice; assay type: in vivo
# Description: (§6) FIG. 5A, A375-R cells were injected subcutaneously in female athymic nude mice. Once the tumor volume reach 150 mm3, the mice were randomly divided into 4 groups (n=7 in each group) and the treatment was started as described under ‘Material and Method’ section. Tumor volumes were measure thrice a week by vernier calipers and the values were plotted as Mean±S.E.M. FIG. 5B, at day 30, the mice were sacrifice, tumors were extracted and weighed. The values are plotted as mean±S.D. *, p<0.05 as compared to control. #, p<0.05 as compared to vemurafenib treated group. $, p<0.05 as compared to TW-37 treated group. […] FIG. 5D, Formalin fixed paraffin embedded tumor sections were subjected to immunohistochemistry. Representative images of the tumor sections stained with Mcl-1, p-ERK and cleaved caspase 3.
# FIGS. 6A to 6D show silencing Mcl-1 suppresses the growth of melanoma tumors resistance to vemurafenib. FIG. 6A, A375-R cells were injected subcutaneously in female athymic nude mice. Once the tumor volume reach 150 mm3, the mice were randomly divided into 4 groups (n=6 in each group) and the treatment was started as described under ‘Material and Method’ section. Tumor volumes were measure thrice a week by vernier calipers and the values were plotted as Mean±S.E.M. FIG. 6B, at day 30, the mice were sacrifice, tumors were extracted and weighed. The values are plotted as mean±S.D. *, p<0.05 as compared to control. #, p<0.05 as compared to vemurafenib treated group. $, p<0.05 as compared to TW-37 treated group. […] FIG. 6D, Formalin fixed paraffin embedded tumor sections were subjected to immunohistochemistry. Representative images of the tumor sections stained with Mcl-1, p-ERK and cleaved caspase 3.
# Tumor Therapy. All the studies involving animals were approved by the Institutional Animal Care and Use Committee. About 5-6 weeks old athymic nude mice (Charles River, Wilmington, Mass., USA) were allowed to acclimatize for one week prior to the beginning of the studies. Mice were injected subcutaneously with 3.5×10^6 A375-R cells. When the tumor volume reached to 150 mm3, mice were randomly segregated into several groups with 6-7 mice in each group. Vemurafenib, formulated as MBP was suspended at a desired concentration in a vehicle containing 2% Klucel LF and adjusted to pH 4 with HCl, was given at a dose of 25 mg/kg twice a day through oral gavage. TW-37 in PBS/ethanol/Tween 80 was administered intraperitonially at a dose of 30 mg/kg thrice a week. Mcl-1 or scrambled siRNA was administered twice a week directly into the tumors (intra-tumoral injection) as described by the inventors previously (27). Tumor measurements were taken thrice a week by vernier calipers and the volume was calculated by the formula V=length*(breadth)2/2 as previously described (28-30). At the end of the study, animals were sacrificed and tumors were excised and fixed in formalin for immunohistochemistry or flash frozen in liquid nitrogen for western blotting analysis as described previously by the inventors (31).
# Mcl-1 [6] = test: Western blotting and immunohistochemistry of A375-R tumors; set-up: species or system mice; conditions: A375-R tumors at termination of the in vivo studies, compared with control group
# Description: as §6
# FIGS. 6A to 6D show silencing Mcl-1 suppresses the growth of melanoma tumors resistance to vemurafenib. FIG. 6A, A375-R cells were injected subcutaneously in female athymic nude mice. […]
# Tumor Therapy. […] Tumor measurements were taken thrice a week by vernier calipers and the volume was calculated by the formula V=length*(breadth)2/2 as previously described (28-30). […]
# Immunohistochemistry. Expression of Mcl-1, Cleaved Caspase 3 and p-ERK in tumor samples were analyzed by immunohistochemistry in paraffin sections five mice from each group. […]
# SK-MEL-28-R cells = test: SRB cell survival in vemurafenib resistant SK-MEL-28-R cells; assay type: cell-based; conditions: SK-MEL-28-R cells, 500 nM TW-37 alone
# Description: as §3, §4, §2, §5
structure (smiles),measurement,setting,value
COc1cc(/C=C/C(=O)N2CCC=CC2=O)cc(OC)c1OC [PL],Inhibition of Mcl-1 (western blotting),Mcl-1 [1],inhibits Mcl-1
CC(C)(C)c1nc(-c2cccc(NS(=O)(=O)c3c(F)cccc3F)c2F)c(-c2ccnc(N)n2)s1 [dabrafenib],IC50,WM-239-DR cells,> 100 nM
same,IC50,A375-DR cells,> 100 nM
same,IC50,WM-239 cells,6 nM
same,IC50,"SK-MEL-28 cells; read-out: IC50 of dabrafenib, 72 hours",2 nM
same,IC50,SK-MEL-28-DR cells,> 100 nM
same,IC50,"A375 cells; Homo sapiens, A-375, 72 h, read-out: IC50 of dabrafenib",5 nM
same,Expression of Mcl-1 (western blotting),Mcl-1 [2],significantly induced the expression of Mcl-1
same,Reduction in cell survival upon Mcl-1 overexpression,[3],completely blocked the effect
CC(C)c1ccccc1Cc1cc(C(=O)Nc2ccc(S(=O)(=O)c3ccccc3C(C)(C)C)cc2)c(O)c(O)c1O [TW-37],Decrease of cell viability,SK-MEL-28 cells; 500 nM TW-37 alone,58%
same,Decrease of cell survival,A375-R cells [4],25%
same,Average tumor volume,"A375-R cells [5]; day 30, vemurafenib 25 mg/kg twice a day oral, TW-37 30 mg/kg i.p. thrice a week, Mcl-1 siRNA intratumoral twice a week",870±187.8 mm3
same,Reduction in tumor growth (tumor volume) as compared to control,"A375-R cells [5]; day 30, versus control group",48%
same,Reduction in tumor growth (tumor volume) as compared to vemurafenib treated group,"A375-R cells [5]; day 30, versus vemurafenib group",46%
same,Reduction of tumor weight as compared to control,"A375-R cells [5]; tumors weighed at day 30, versus control",47%
same,Reduction of tumor weight as compared to vemurafenib treated group,"A375-R cells [5]; tumors weighed at day 30, versus vemurafenib group",48%
same,Decrease of cell viability,"A375 cells; A375 cells, 500 nM TW-37 alone",60%
same,Expression of Mcl-1 in tumors (western blotting and immunohistochemistry),Mcl-1 [6],diminished expression of Mcl-1
same,Reduction of growth,SK-MEL-28-R cells,25%
